The numbers were not newly measured in paper PMC5948259, “A phase I study to assess the mass balance, excretion, and pharmacokinetics of [^14C]-ixazomib, an oral proteasome inhibitor, in patients with advanced solid tumors” (Investigational New Drugs, 2017), which cites them from elsewhere.

The structures appear in SMILES notation.

Details of this data set: method as in PMID 25011071. Conditions: patients with MM; cited from earlier work.

For `CC(C)C[C@H](NC(=O)[C@H](Cc1ccccc1)NC(=O)c1cnccn1)B(O)O` [bortezomib], the “Concentrations in whole blood higher than those observed in plasma” value is on record as 3 fold.
